Molecular target: T1, F508del (Homo sapiens, UniProt P13569, DEL508-508)
T1 construct: expressed in transfected cells
Test: Protocol 2: FRET membrane potential optical assay (VIPR), identification of correction compounds
Format: cell-based
Conditions: F508del CFTR modulator activity; compounds of Table 1; read-out: EC30
Summary of the method: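 FRET read-out (CC2-DMPE donor, DiSBAC2(3) voltage-sensitive acceptor) of membrane depolarization on VIPR II. Corrector candidates incubated 16 hrs at 37° C. with NIH3T3 cells expressing F508del; temperature correction at 27° C. as positive control; stimulation by 10 μM forskolin, 20 μM genistein, chloride-free gluconate bath.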

T1 sequence (P13569 with tags, fused parts or gaps DEL508-508): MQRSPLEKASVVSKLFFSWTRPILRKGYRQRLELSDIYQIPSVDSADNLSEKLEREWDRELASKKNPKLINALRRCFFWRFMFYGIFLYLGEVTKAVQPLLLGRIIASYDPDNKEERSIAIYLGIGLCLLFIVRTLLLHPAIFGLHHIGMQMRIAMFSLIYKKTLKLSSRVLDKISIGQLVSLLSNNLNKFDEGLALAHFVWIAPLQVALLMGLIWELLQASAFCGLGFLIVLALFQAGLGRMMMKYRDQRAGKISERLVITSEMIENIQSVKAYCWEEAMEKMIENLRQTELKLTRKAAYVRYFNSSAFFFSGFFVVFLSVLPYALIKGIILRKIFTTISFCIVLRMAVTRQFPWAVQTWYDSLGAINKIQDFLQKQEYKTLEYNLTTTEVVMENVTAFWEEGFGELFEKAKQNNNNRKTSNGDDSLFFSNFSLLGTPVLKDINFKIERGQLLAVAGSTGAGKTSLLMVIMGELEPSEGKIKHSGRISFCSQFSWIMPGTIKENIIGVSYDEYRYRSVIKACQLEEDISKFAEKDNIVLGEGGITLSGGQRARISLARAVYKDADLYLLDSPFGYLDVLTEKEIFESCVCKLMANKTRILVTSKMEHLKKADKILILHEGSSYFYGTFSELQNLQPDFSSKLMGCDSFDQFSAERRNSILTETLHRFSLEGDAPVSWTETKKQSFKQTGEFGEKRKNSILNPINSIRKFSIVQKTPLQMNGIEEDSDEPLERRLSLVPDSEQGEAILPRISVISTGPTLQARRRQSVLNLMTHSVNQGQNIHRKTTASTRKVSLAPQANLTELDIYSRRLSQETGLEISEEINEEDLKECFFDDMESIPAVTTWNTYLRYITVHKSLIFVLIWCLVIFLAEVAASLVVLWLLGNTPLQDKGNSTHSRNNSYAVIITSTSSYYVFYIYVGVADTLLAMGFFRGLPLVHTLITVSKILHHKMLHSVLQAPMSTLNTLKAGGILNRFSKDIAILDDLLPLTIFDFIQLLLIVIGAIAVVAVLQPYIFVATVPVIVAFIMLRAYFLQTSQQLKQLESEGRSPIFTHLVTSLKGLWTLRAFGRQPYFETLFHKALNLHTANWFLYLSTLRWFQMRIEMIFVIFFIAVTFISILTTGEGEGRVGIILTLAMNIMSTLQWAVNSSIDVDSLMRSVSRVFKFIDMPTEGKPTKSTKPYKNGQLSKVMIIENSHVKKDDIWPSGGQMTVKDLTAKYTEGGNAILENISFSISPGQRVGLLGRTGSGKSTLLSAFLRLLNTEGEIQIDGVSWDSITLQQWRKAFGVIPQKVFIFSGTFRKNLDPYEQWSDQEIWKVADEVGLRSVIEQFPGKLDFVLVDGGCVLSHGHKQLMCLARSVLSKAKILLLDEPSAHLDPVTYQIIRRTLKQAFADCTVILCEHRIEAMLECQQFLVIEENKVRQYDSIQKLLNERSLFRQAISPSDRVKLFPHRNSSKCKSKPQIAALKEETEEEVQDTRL

EC30	SMILES
< 3000 nM	CC(C)OC(=O)N1CCC=C(c2ccc(C(=O)NS(=O)(=O)c3cccc(N)n3)c(N3C[C@@H](C)CC3(C)C)n2)C1 [Compound 2622, isopropyl 5-[5-[(6-amino-2-pyridyl)sulfonylcarbamoyl]-6-[(4S)-2,2,4-trimethylpyrrolidin-1-yl]-2-pyridyl]-3,6-dihydro-2H-pyridine-1-carboxylate]
3000 to 10000 nM	CC(C)Oc1ccccc1-c1ccc(C(=O)NS(=O)(=O)c2cccnc2N)c(N2C[C@@H](C)CC2(C)C)n1 [Compound 2623, N-[(2-amino-3-pyridyl)sulfonyl]-6-(2-isopropoxyphenyl)-2-[(4S)-2,2,4-trimethylpyrrolidin-1-yl]pyridine-3-carboxamide]
3000 to 10000 nM	CC(C)OC(=O)Nc1cccc(S(=O)(=O)NC(=O)c2ccc(C3=CCCNC3)nc2N2C[C@@H](C)CC2(C)C)n1 [Compound 2624, isopropyl N—[6-[[6-(1,2,3,6-tetrahydropyridin-5-yl)-2-[(4S)-2,2,4-trimethylpyrrolidin-1-yl]pyridine-3-carbonyl]sulfamoyl]-2-pyridyl]carbamate]
< 3000 nM	CC1CN(c2ncccc2C(=O)NS(=O)(=O)c2cccc(OCCc3ccccc3F)n2)C(C)(C)C1 (stereo not drawn) [Compound 2625, N—[[6-[2-(2-fluorophenyl)ethoxy]-2-pyridyl]sulfonyl]-2-(2,2,4-trimethylpyrrolidin-1-yl)pyridine-3-carboxamide]
< 3000 nM	Cc1cc(C)cc(-c2ccc(C(=O)NS(=O)(=O)c3ccc[nH]c3=O)c(N3C[C@@H](C)CC3(C)C)n2)c1 [Compound 2626, 6-(3,5-dimethylphenyl)-N-[(2-oxo-1H-pyridin-3-yl)sulfonyl]-2-[(4S)-2,2,4-trimethylpyrrolidin-1-yl]pyridine-3-carboxamide]
< 3000 nM	CC1CN(c2ncccc2C(=O)NS(=O)(=O)c2cccc(OCC3OCc4ccccc4O3)n2)C(C)(C)C1 (stereo not drawn) [Compound 2627, N—[[6-(4H-1,3-benzodioxin-2-ylmethoxy)-2-pyridyl]sulfonyl]-2-(2,2,4-trimethylpyrrolidin-1-yl)pyridine-3-carboxamide]
< 3000 nM	COc1ncc(-c2ccc(C(=O)NS(=O)(=O)c3cccnc3N)c(N3C[C@@H](C)CC3(C)C)n2)cc1F [Compound 2628, N-[(2-amino-3-pyridyl)sulfonyl]-6-(5-fluoro-6-methoxy-3-pyridyl)-2-[(4S)-2,2,4-trimethylpyrrolidin-1-yl]pyridine-3-carboxamide]
< 3000 nM	CC1CN(c2ncccc2C(=O)NS(=O)(=O)c2cccc(OCCC3CCCC3)n2)C(C)(C)C1 (stereo not drawn) [Compound 2630, N—[[6-(2-cyclopentylethoxy)-2-pyridyl]sulfonyl]-2-(2,2,4-trimethylpyrrolidin-1-yl)pyridine-3-carboxamide]
< 3000 nM	CC1CN(c2ncccc2C(=O)NS(=O)(=O)c2cccc(NCCc3ccccc3Cl)n2)C(C)(C)C1 (stereo not drawn) [Compound 2632, N—[[6-[2-(2-chlorophenyl)ethylamino]-2-pyridyl]sulfonyl]-2-(2,2,4-trimethylpyrrolidin-1-yl)pyridine-3-carboxamide]
3000 to 10000 nM	C[C@@H]1CN(c2nc(C3=CCCN(C(=O)CC4CCCCC4)C3)ccc2C(=O)NS(=O)(=O)c2cccc(N)n2)C(C)(C)C1 [Compound 2633, N-[(6-amino-2-pyridyl)sulfonyl]-6-[1-(2-cyclohexylacetyl)-3,6-dihydro-2H-pyridin-5-yl]-2-[(4S)-2,2,4-trimethylpyrrolidin-1-yl]pyridine-3-carboxamide]
< 3000 nM	CC(C)c1ccccc1-c1ccc(C(=O)NS(=O)(=O)c2ccc[nH]c2=O)c(N2C[C@@H](C)CC2(C)C)n1 [Compound 2635, 6-(2-isopropylphenyl)-N-[(2-oxo-1H-pyridin-3-yl)sulfonyl]-2-[(4S)-2,2,4-trimethylpyrrolidin-1-yl]pyridine-3-carboxamide]
> 10000 nM	C[C@@H]1CN(c2nc(-c3cccc4[nH]ccc34)ccc2C(=O)NS(=O)(=O)c2ccc[nH]c2=O)C(C)(C)C1 [Compound 2636, 6-(1H-indol-4-yl)-N-[(2-oxo-1H-pyridin-3-yl)sulfonyl]-2-[(4S)-2,2,4-trimethylpyrrolidin-1-yl]pyridine-3-carboxamide]
< 3000 nM	COc1ccccc1Oc1cccc(S(=O)(=O)NC(=O)c2cccnc2N2CC(C)CC2(C)C)n1 (stereo not drawn) [Compound 2637, N—[[6-(2-methoxyphenoxy)-2-pyridyl]sulfonyl]-2-(2,2,4-trimethylpyrrolidin-1-yl)pyridine-3-carboxamide]
< 3000 nM	Cc1cc(F)cc(-c2ccc(C(=O)NS(=O)(=O)c3cccc(N)n3)c(N3C[C@@H](C)CC3(C)C)n2)c1 [Compound 2638, N-[(6-amino-2-pyridyl)sulfonyl]-6-(3-fluoro-5-methyl-phenyl)-2-[(4S)-2,2,4-trimethylpyrrolidin-1-yl]pyridine-3-carboxamide]
< 3000 nM	CC1CN(c2ncccc2C(=O)NS(=O)(=O)c2cccc(Nc3ccccc3)n2)C(C)(C)C1 (stereo not drawn) [Compound 2639, N-[(6-anilino-2-pyridyl)sulfonyl]-2-(2,2,4-trimethylpyrrolidin-1-yl)pyridine-3-carboxamide]
< 3000 nM	CC1CN(c2ncccc2C(=O)NS(=O)(=O)c2cccc(NCc3cccc(F)c3F)n2)C(C)(C)C1 (stereo not drawn) [Compound 2640, N—[[6-[(2,3-difluorophenyl)methylamino]-2-pyridyl]sulfonyl]-2-(2,2,4-trimethylpyrrolidin-1-yl)pyridine-3-carboxamide]
< 3000 nM	CC1CN(c2ncccc2C(=O)NS(=O)(=O)c2cccc(N3CCC(C(F)(F)F)CC3)n2)C(C)(C)C1 (stereo not drawn) [Compound 2641, N—[[6-[4-(trifluoromethyl)-1-piperidyl]-2-pyridyl]sulfonyl]-2-(2,2,4-trimethylpyrrolidin-1-yl)pyridine-3-carboxamide]

Second part, the molecule before the results:

SMILES	EC30
CC1CN(c2ncccc2C(=O)NS(=O)(=O)c2cccc(Oc3ccc4ccccc4c3)n2)C(C)(C)C1 (stereo not drawn) [Compound 2611, N—[[6-(2-naphthyloxy)-2-pyridyl]sulfonyl]-2-(2,2,4-trimethylpyrrolidin-1-yl)pyridine-3-carboxamide]	< 3000 nM
CCC(C)(C)C(=O)N1CCC=C(c2ccc(C(=O)NS(=O)(=O)c3cccc(N)n3)c(N3C[C@@H](C)CC3(C)C)n2)C1 [Compound 2612, N-[(6-amino-2-pyridyl)sulfonyl]-6-[1-(2,2-dimethylbutanoyl)-3,6-dihydro-2H-pyridin-5-yl]-2-[(4S)-2,2,4-trimethylpyrrolidin-1-yl]pyridine-3-carboxamide]	3000 to 10000 nM
Cc1ccc(-c2ccc(C(=O)NS(=O)(=O)c3cccnc3N)c(N3C[C@@H](C)CC3(C)C)n2)c(F)c1 [Compound 2613, N-[(2-amino-3-pyridyl)sulfonyl]-6-(2-fluoro-4-methyl-phenyl)-2-[(4S)-2,2,4-trimethylpyrrolidin-1-yl]pyridine-3-carboxamide]	< 3000 nM
COc1cc(-c2ccc(C(=O)NS(=O)(=O)c3cccnc3N)c(N3C[C@@H](C)CC3(C)C)n2)ccc1O [Compound 2614, N-[(2-amino-3-pyridyl)sulfonyl]-6-(4-hydroxy-3-methoxy-phenyl)-2-[(4S)-2,2,4-trimethylpyrrolidin-1-yl]pyridine-3-carboxamide]	3000 to 10000 nM
Cc1c(F)cccc1-c1ccc(C(=O)NS(=O)(=O)c2cccc(N)n2)c(N2C[C@@H](C)CC2(C)C)n1 [Compound 2616, N-[(6-amino-2-pyridyl)sulfonyl]-6-(3-fluoro-2-methyl-phenyl)-2-[(4S)-2,2,4-trimethylpyrrolidin-1-yl]pyridine-3-carboxamide]	< 3000 nM
CCOc1cccc(S(=O)(=O)NC(=O)c2cccnc2N2CC(C)CC2(C)C)n1 (stereo not drawn) [Compound 2617, N-[(6-ethoxy-2-pyridyl)sulfonyl]-2-(2,2,4-trimethylpyrrolidin-1-yl)pyridine-3-carboxamide]	3000 to 10000 nM
CC1CN(c2ncccc2C(=O)NS(=O)(=O)c2cccc(OCc3ccc(C(F)(F)F)cc3)n2)C(C)(C)C1 (stereo not drawn) [Compound 2618, N—[[6-[[4-(trifluoromethyl)phenyl]methoxy]-2-pyridyl]sulfonyl]-2-(2,2,4-trimethylpyrrolidin-1-yl)pyridine-3-carboxamide]	< 3000 nM
CC1CN(c2ncccc2C(=O)NS(=O)(=O)c2cccc(OCc3ccccc3)n2)C(C)(C)C1 (stereo not drawn) [Compound 2619, N-[(6-benzyloxy-2-pyridyl)sulfonyl]-2-(2,2,4-trimethylpyrrolidin-1-yl)pyridine-3-carboxamide]	< 3000 nM
CCCCN1CCCN(c2cccc(S(=O)(=O)NC(=O)c3cccnc3N3CC(C)CC3(C)C)n2)CC1 (stereo not drawn) [Compound 2620, N—[[6-(4-butyl-1,4-diazepan-1-yl)-2-pyridyl]sulfonyl]-2-(2,2,4-trimethylpyrrolidin-1-yl)pyridine-3-carboxamide]	3000 to 10000 nM
CC1CN(c2ncccc2C(=O)NS(=O)(=O)c2cccc(N3CCN(c4ncccn4)CC3)n2)C(C)(C)C1 (stereo not drawn) [Compound 2621, N—[[6-(4-pyrimidin-2-ylpiperazin-1-yl)-2-pyridyl]sulfonyl]-2-(2,2,4-trimethylpyrrolidin-1-yl)pyridine-3-carboxamide]	3000 to 10000 nM
CC(C)COc1ccccc1-c1ccc(C(=O)NS(=O)(=O)c2ccc[nH]c2=O)c(N2C[C@@H](C)CC2(C)C)n1 [Compound 2629, 6-(2-isobutoxyphenyl)-N-[(2-oxo-1H-pyridin-3-yl)sulfonyl]-2-[(4S)-2,2,4-trimethylpyrrolidin-1-yl]pyridine-3-carboxamide]	< 3000 nM
CC(C)COc1cc(F)cc(-c2ccc(C(=O)NS(=O)(=O)c3cccc(N)n3)c(N3CC(F)(F)CC3(C)C)n2)c1 [Compound 2631, N-[(6-amino-2-pyridyl)sulfonyl]-2-(4,4-difluoro-2,2-dimethyl-pyrrolidin-1-yl)-6-(3-fluoro-5-isobutoxy-phenyl)pyridine-3-carboxamide]	< 3000 nM
CC(C)COc1cc(F)cc(-c2ccc(C(=O)NS(=O)(=O)c3cccc(N)n3)c(N3C[C@@H](C)CC3(C)C)c2F)c1 [Compound 2634, N-[(6-amino-2-pyridyl)sulfonyl]-3-fluoro-4-(3-fluoro-5-isobutoxy-phenyl)-2-[(4S)-2,2,4-trimethylpyrrolidin-1-yl]benzamide]	< 3000 nM

Source: patent US10758534B2 (Vertex Pharmaceuticals Incorporated, priority 2014, dated 2020)
